We go through 17 compounds from US20120208809A1, “9H-PYRROLO[2,3-B: 5,4-C'] DIPYRIDINE AZACARBOLINE DERIVATIVES, PREPARATION THEREOF, AND THERAPEUTIC USE THEREOF” (SANOFI, priority 2009, published 2012).

Molecules are shown by their SMILES. pIC50: −log10 of the molar value.

For one assay, the target named is T1, Pim-1 (Homo sapiens, UniProt P11309).
T1 construct: full-length human recombinant His6-labelled Pim-1, Pim-2 or Pim-3 protein; His6; made in house
As to the kind of experiment: TR-FRET assay of Pim kinase activity (phosphorylation of Bad Ser112), Pim-1. Format: biochemical. Particulars: ATP 40 μM, read-out: IC50 Pim1. As for the experimental part: (§1) In order to determine the inhibition of Pim kinase activity, the compounds of the invention are tested in accordance with a routinely-used in-vitro TR-FRET assay (“Time Resolved-Fluorescence Resonance Energy Transfer”). […] For the assay, the following reagents are used:
(§2) Pim kinase—full-length human recombinant His6-labelled Pim-1, Pim-2 or Pim-3 protein (prepared according to J. Mol. Biol. (2005) 348, 183-193); Bad—full-length human recombinant His6-labelled Bad protein (prepared according to J. Mol. Biol. (2005) 348, 183-193); α-His6-APC—mouse monoclonal antibody conjugated to allophycocyanine SureLight™ directed against the His6 label (Perkin-Elmer, No. AD0059H, Waltham, Mass., United States); α-P˜Bad-Eu—mouse monoclonal antibody (Cell Signaling Technology #9296B, Danvers, Mass., United States) directed against phosphoBad (Ser112) (7E11) labelled on request by Perkin-Elmer with the reagent LANCE™ Eu-W1024.
(§3) The assay is based on the LANCE™ technology from Perkin-Elmer: the Eu-labelled antibody binds to phospho-Ser112 and generates a TR-FRET signal by interaction with the […] antibody directed against His6, bound to the His6 label of Bad. The TR-FRET signal is detected using a SpectraMax M5 plate reader (Molecular Devices) with the following settings: λex=340 nm, λem1=615 nm, λem2=665 nm. The ratio of the fluorescence signal at 665 nm to the fluorescence signal at 615 nm is used as the signal reading for the IC50 (calculations based on the 4-parameter logistic model). The assay is performed in 384-well format; the liquid manipulations are performed using a Beckmann 3000 liquid manipulation station. The test compounds are tested at 10 concentration points in duplicate; the highest concentration of compound is typically equal to 30 μM. The ATP concentration is equal to 40 μM.
On the technique in general: Time-resolved FRET reads energy transfer from a long-lived donor to a nearby acceptor.

The next assay deals with PLK1 (Homo sapiens, UniProt P53350). As to the kind of experiment: Biochemical results, IC50 PLK1.
Chain of PLK1 (P53350 whole entry, species assumed): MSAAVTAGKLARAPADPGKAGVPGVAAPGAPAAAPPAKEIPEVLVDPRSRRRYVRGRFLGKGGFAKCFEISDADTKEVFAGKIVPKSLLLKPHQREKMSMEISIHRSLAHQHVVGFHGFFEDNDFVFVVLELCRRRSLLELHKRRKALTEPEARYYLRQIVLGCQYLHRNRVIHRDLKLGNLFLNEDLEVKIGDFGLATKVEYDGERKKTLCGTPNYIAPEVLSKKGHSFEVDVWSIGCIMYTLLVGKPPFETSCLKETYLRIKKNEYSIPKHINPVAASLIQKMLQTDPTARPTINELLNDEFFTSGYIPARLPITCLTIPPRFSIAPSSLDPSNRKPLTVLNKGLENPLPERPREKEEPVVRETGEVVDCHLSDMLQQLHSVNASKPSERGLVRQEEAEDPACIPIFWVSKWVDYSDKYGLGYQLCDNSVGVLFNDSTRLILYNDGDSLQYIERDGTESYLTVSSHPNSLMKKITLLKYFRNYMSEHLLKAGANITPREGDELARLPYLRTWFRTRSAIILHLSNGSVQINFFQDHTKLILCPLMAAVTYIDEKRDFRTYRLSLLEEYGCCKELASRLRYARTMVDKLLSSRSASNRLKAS
The target of a further assay is T2, Pim-2 (Homo sapiens, UniProt Q9P1W9).
T2 construct: full-length human recombinant His6-labelled Pim-1, Pim-2 or Pim-3 protein; His6; made in house
T2 sequence (Q9P1W9 whole entry): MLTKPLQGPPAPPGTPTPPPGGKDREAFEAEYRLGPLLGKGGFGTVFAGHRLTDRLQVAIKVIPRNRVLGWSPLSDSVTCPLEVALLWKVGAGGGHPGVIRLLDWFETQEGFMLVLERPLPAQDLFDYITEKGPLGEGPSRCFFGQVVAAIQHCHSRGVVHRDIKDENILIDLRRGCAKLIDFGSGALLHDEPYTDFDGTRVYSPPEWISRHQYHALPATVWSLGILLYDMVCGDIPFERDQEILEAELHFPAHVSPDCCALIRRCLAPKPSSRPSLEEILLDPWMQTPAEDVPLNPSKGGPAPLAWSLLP
As to the kind of experiment: TR-FRET assay of Pim kinase activity (phosphorylation of Bad Ser112), Pim-2. In kind it is biochemical. The following applies: ATP 40 μM, read-out: IC50 Pim2. Here is the method:
as §1, §2, §3

The target in a further assay is CDK1 (Homo sapiens, UniProt P06493). In words: Biochemical results, IC50 CDK1.
Chain of CDK1 (P06493 whole entry, species assumed): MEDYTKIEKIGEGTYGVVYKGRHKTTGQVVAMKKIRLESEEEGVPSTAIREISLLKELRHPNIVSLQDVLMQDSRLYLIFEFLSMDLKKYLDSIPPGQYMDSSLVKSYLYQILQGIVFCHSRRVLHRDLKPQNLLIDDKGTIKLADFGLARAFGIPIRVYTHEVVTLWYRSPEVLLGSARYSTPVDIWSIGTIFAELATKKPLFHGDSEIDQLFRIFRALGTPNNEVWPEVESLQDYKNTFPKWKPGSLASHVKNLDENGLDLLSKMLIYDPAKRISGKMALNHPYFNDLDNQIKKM
Chain of CDK1 (P14635 whole entry partner, species assumed): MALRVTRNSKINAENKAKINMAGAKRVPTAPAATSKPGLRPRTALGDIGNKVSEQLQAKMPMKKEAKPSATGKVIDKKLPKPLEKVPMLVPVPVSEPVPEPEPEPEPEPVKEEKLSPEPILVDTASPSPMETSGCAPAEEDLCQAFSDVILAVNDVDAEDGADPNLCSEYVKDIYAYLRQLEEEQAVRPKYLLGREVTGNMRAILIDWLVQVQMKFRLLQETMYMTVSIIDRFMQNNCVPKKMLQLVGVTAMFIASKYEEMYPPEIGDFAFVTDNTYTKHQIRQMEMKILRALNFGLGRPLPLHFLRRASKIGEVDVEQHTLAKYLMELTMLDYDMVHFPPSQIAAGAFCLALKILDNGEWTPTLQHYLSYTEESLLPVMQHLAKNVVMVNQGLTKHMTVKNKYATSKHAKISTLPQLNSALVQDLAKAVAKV
The next assay addresses T3, Pim-3 (Homo sapiens, UniProt Q86V86).
T3 construct: full-length human recombinant His6-labelled Pim-1, Pim-2 or Pim-3 protein; His6; made in house
As to the kind of experiment: TR-FRET assay of Pim kinase activity (phosphorylation of Bad Ser112), Pim-3. In kind it is biochemical. Particulars: ATP 40 μM, read-out: IC50 Pim3. Here is the method:
as §1, §2, §3

T1 sequence (P11309 whole entry): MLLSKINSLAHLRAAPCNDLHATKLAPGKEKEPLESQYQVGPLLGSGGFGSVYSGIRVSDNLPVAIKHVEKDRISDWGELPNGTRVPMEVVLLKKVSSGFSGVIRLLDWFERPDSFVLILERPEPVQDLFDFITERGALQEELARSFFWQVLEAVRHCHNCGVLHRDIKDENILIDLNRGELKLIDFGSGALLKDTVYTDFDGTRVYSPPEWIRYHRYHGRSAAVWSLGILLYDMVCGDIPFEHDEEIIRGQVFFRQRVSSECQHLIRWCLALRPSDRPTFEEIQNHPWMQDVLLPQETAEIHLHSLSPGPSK

As usually defined, the pIC50 is the negative decadic logarithm of the IC50, by convention in mol/L. With `Cn1cc(-c2cc3c(cn2)[nH]c2ncc(F)c(-c4ccc(C(N)=O)cc4)c23)cn1` [Example 104, 4-[3-fluoro-6-(1-methyl-1H-pyrazol-4-yl)-9H-pyrrolo[2,3-b:5,4-c′]dipyridin-4-yl]benzamide], the negative-log IC50 (pIC50) on Pim-1 was above 7.00; on PLK1, 6.00 to 7.00; at Pim-2, 6.00 to 7.00; on CDK1, 6.00 to 7.00; at Pim-3, above 7.00.

On to `CN1CCC(N(C)C(=O)c2ccc(-c3c(F)cnc4[nH]c5cnc(-c6cccnc6)cc5c34)cc2)CC1` [Example 81, 4-[3-fluoro-6-(pyridin-3-yl)-9H-pyrrolo[2,3-b:5,4-c′]dipyridin-4-yl]-N-methyl-N-(1-methylpiperidin-4-yl)benzamide], for which the negative logarithm of the IC50 (pIC50) on Pim-1 was above 7.00; against PLK1, 6.00 to 7.00; at Pim-2 it was 5.30 to 6.00; against CDK1, 5.30 to 6.00; at Pim-3, above 7.00.

As for `O=C(NCc1nnn[nH]1)c1ccc(-c2c(F)cnc3[nH]c4cnc(-c5cccnc5)cc4c23)cc1` [Example 45, 4-[3-fluoro-6-(pyridin-3-yl)-9H-pyrrolo[2,3-b:5,4-c′]dipyridin-4-yl]-N-(1H-tetrazol-5-ylmethyl)benzamide], the pIC50 at Pim-1 is 6.00 to 7.00; at PLK1, above 7.00; on Pim-2, below 5.30; at CDK1, 6.00 to 7.00; at Pim-3 it was 6.00 to 7.00.

Regarding `COCCN1CCN(C(=O)c2ccc(-c3c(F)cnc4[nH]c5cnc(-c6cccnc6)cc5c34)cc2)CC1` [Example 72, {4-[3-fluoro-6-(pyridin-3-yl)-9H-pyrrolo[2,3-b:5,4-c′]dipyridin-4-yl]phenyl}[4-(2-methoxyethyl)piperazin-1-yl]methanone], the negative logarithm of the IC50 (pIC50) was 6.00 to 7.00 at Pim-1; 6.00 to 7.00 at PLK1; below 5.30 at Pim-2; 5.30 to 6.00 against CDK1; 6.00 to 7.00 at Pim-3.

As for `Cc1n[nH]cc1CNC(=O)c1ccc(-c2c(F)cnc3[nH]c4cnc(-c5cccnc5)cc4c23)cc1` [Example 73, 4-[3-fluoro-6-(pyridin-3-yl)-9H-pyrrolo[2,3-b:5,4-c′]dipyridin-4-yl]-N-[(3-methyl-1H-pyrazol-4-yl)methyl]benzamide], the pIC50 on Pim-1 is above 7.00; against PLK1 it was above 7.00; at Pim-2, 6.00 to 7.00; against CDK1 it was 6.00 to 7.00; on Pim-3, above 7.00.

Take `CCN(CC1CCN(C)C1)C(=O)c1ccc(-c2c(F)cnc3[nH]c4cnc(-c5cccnc5)cc4c23)cc1` (stereo not shown) [Example 79, N-ethyl-4-[3-fluoro-6-(pyridin-3-yl)-9H-pyrrolo[2,3-b:5,4-c′]dipyridin-4-yl]-N-[(1-methylpyrrolidin-3-yl)methyl]benzamide]: the negative logarithm of the IC50 (pIC50) was above 7.00 on Pim-1; 6.00 to 7.00 against PLK1; 6.00 to 7.00 on Pim-2; 5.30 to 6.00 on CDK1; above 7.00 on Pim-3.

Turning to `CCN1CCCC1CNC(=O)c1ccc(-c2c(F)cnc3[nH]c4cnc(-c5cccnc5)cc4c23)cc1` (stereo not shown) [Example 51, N-[(1-ethylpyrrolidin-2-yl)methyl]-4-[3-fluoro-6-(pyridin-3-yl)-9H-pyrrolo[2,3-b:5,4-c′]dipyridin-4-yl]benzamide], the negative logarithm of the IC50 (pIC50) at Pim-1 was above 7.00; on PLK1 it was 6.00 to 7.00; at Pim-2, 6.00 to 7.00; at CDK1, 5.30 to 6.00; at Pim-3, above 7.00.

Turning to `CN1CCC(N(C)C(=O)c2ccc(-c3c(F)cnc4[nH]c5cnc(-c6cccnc6)cc5c34)cc2)C1` (stereo not shown) [Example 70, 4-[3-fluoro-6-(pyridin-3-yl)-9H-pyrrolo[2,3-b:5,4-c′]dipyridin-4-yl]-N-methyl-N-(1-methylpyrrolidin-3-yl)benzamide], the negative logarithm of the IC50 (pIC50) was above 7.00 at Pim-1; 5.30 to 6.00 against PLK1; 5.30 to 6.00 at Pim-2; 5.30 to 6.00 against CDK1; 6.00 to 7.00 on Pim-3.

With `CC(C)(CNC(=O)c1ccc(-c2c(F)cnc3[nH]c4cnc(-c5cccnc5)cc4c23)cc1)N1CCCC1` [Example 58, 4-[3-fluoro-6-(pyridin-3-yl)-9H-pyrrolo[2,3-b:5,4-c′]dipyridin-4-yl]-N-[2-methyl-2-(pyrrolidin-1-yl)propyl]benzamide], the pIC50 at Pim-1 was above 7.00; against PLK1 it was 6.00 to 7.00; at Pim-2 it was 6.00 to 7.00; at CDK1, 5.30 to 6.00; on Pim-3 it was above 7.00.

`CC1CCCCN1CCNC(=O)c1ccc(-c2c(F)cnc3[nH]c4cnc(-c5cccnc5)cc4c23)cc1` (stereo not shown) [Example 55, 4-[3-fluoro-6-(pyridin-3-yl)-9H-pyrrolo[2,3-b:5,4-c′]dipyridin-4-yl]-N-[2-(2-methylpiperidin-1-yl)ethyl]benzamide]: the negative logarithm of the IC50 (pIC50) is above 7.00 at Pim-1; 6.00 to 7.00 against PLK1; 6.00 to 7.00 on Pim-2; 6.00 to 7.00 against CDK1; above 7.00 at Pim-3.

As for `O=C(NCc1ccnc(O)c1)c1ccc(-c2c(F)cnc3[nH]c4cnc(-c5cccnc5)cc4c23)cc1` [Example 82, 4-[3-fluoro-6-(pyridin-3-yl)-9H-pyrrolo[2,3-b:5,4-c′]dipyridin-4-yl]-N-[(2-hydroxypyridin-4-yl)methyl]benzamide], the pIC50 was above 7.00 at Pim-1; 6.00 to 7.00 at PLK1; 6.00 to 7.00 at Pim-2; 6.00 to 7.00 against CDK1; above 7.00 at Pim-3.

Regarding `CCN(CCN(C)C)C(=O)c1ccc(-c2c(F)cnc3[nH]c4cnc(-c5cccnc5)cc4c23)cc1` [Example 67, N-[2-(dimethylamino)ethyl]-N-ethyl-4-[3-fluoro-6-(pyridin-3-yl)-9H-pyrrolo[2,3-b:5,4-c′]dipyridin-4-yl]benzamide], the pIC50 on Pim-1 was above 7.00; against PLK1, 6.00 to 7.00; at Pim-2, above 7.00; on CDK1, 5.30 to 6.00; at Pim-3, above 7.00.

For `CC(N)(CNC(=O)c1ccc(-c2c(F)cnc3[nH]c4cnc(-c5cccnc5)cc4c23)cc1)C(F)(F)F` (stereo not shown) [Example 91, N-(2-amino-3,3,3-trifluoro-2-methylpropyl)-4-[3-fluoro-6-(pyridin-3-yl)-9H-pyrrolo[2,3-b:5,4-c′]dipyridin-4-yl]benzamide], the pIC50 was 6.00 to 7.00 on Pim-1; 6.00 to 7.00 at PLK1; 5.30 to 6.00 at Pim-2; 6.00 to 7.00 against CDK1; 6.00 to 7.00 at Pim-3.

As to `CC(=O)NCCNC(=O)c1ccc(-c2c(F)cnc3[nH]c4cnc(-c5cccnc5)cc4c23)cc1` [Example 48, N-[2-(acetylamino)ethyl]-4-[3-fluoro-6-(pyridin-3-yl)-9H-pyrrolo[2,3-b:5,4-c′]dipyridin-4-yl]benzamide], the pIC50 on Pim-1 is above 7.00; against PLK1, above 7.00; at Pim-2 it was 5.30 to 6.00; at CDK1, 6.00 to 7.00; on Pim-3, 6.00 to 7.00.

Consider `CS(=O)(=O)NCCNC(=O)c1ccc(-c2c(F)cnc3[nH]c4cnc(-c5cccnc5)cc4c23)cc1` [Example 62, 4-[3-fluoro-6-(pyridin-3-yl)-9H-pyrrolo[2,3-b:5,4-c′]dipyridin-4-yl]-N-{2-[(methylsulfonyl)amino]ethyl}benzamide], for which the negative logarithm of the IC50 (pIC50) at Pim-1 is above 7.00; against PLK1, 6.00 to 7.00; on Pim-2 it was 5.30 to 6.00; at CDK1, 6.00 to 7.00; at Pim-3, above 7.00.

Consider `CCN1CCCC(NC(=O)c2ccc(-c3c(F)cnc4[nH]c5cnc(-c6cccnc6)cc5c34)cc2)C1` (stereo not shown) [Example 54, N-(1-ethylpiperidin-3-yl)-4-[3-fluoro-6-(pyridin-3-yl)-9H-pyrrolo[2,3-b:5,4-c′]dipyridin-4-yl]benzamide], for which the negative-log IC50 (pIC50) on Pim-1 is above 7.00; against PLK1 it was 6.00 to 7.00; on Pim-2, 6.00 to 7.00; against CDK1 it was 6.00 to 7.00; on Pim-3 it was above 7.00.

As to `CN1CCCC1CCNC(=O)c1ccc(-c2c(F)cnc3[nH]c4cnc(-c5cccnc5)cc4c23)cc1` (stereo not shown) [Example 65, 4-[3-fluoro-6-(pyridin-3-yl)-9H-pyrrolo[2,3-b:5,4-c′]dipyridin-4-yl]-N-[2-(1-methylpyrrolidin-2-yl)ethyl]benzamide], the negative logarithm of the IC50 (pIC50) on Pim-1 is above 7.00; at PLK1 it was 6.00 to 7.00; on Pim-2, 6.00 to 7.00; at CDK1, 5.30 to 6.00; on Pim-3, above 7.00.
